Test results: patent US6486206B1, “Mechanical and pharmacologic therapies to treat cardiac arrest” (CPRx Inc., priority 1997, dated 2002)

Test system: porcine model of ventricular fibrillation
Details: pigs, standard CPR, 2 minutes after drug administration
Method: Vital organ blood flow was also assessed after four minutes of ventricular fibrulation, four minutes of standard CPR, and two minutes after drug administration.

## CNC[C@H](O)c1ccc(O)c(O)c1 [epinephrine]
  endocardial:epicardial ratio (mean±SEM): 0.81±0.21
